Reference: patent US8119647B2, “Fused pyrimidineone compounds as TRPV3 modulators” (Glenmark Pharmaceuticals S.A., priority 2008, dated 2012)

Target: T1, Human TRPV3 (Homo sapiens, UniProt Q8NET8)
T1 construct: expressed in transfected cells; host or cells: CHO cells (G-418 selection)
T1 sequence (Q8NET8 1-790): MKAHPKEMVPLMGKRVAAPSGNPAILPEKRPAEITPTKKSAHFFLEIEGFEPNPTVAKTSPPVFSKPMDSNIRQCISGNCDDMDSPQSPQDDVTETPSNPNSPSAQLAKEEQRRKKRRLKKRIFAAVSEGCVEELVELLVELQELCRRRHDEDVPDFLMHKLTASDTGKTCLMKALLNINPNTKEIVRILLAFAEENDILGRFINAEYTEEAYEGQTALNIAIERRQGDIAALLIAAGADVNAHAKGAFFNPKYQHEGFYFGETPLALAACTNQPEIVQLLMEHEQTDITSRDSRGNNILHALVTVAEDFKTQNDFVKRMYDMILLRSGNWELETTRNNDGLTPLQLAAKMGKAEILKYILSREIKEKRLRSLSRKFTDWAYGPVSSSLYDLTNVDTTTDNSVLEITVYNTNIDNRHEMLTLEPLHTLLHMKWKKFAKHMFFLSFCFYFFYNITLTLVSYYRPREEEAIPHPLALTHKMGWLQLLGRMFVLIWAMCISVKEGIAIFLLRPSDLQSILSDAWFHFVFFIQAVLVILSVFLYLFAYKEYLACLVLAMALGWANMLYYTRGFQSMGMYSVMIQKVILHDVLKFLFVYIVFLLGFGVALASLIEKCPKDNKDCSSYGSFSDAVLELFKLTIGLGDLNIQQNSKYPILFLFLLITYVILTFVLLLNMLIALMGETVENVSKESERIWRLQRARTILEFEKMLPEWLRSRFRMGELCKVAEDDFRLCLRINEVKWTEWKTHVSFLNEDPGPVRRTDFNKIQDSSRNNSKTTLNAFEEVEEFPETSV
Test: Screening for TRPV3 antagonist using the 45Calcium uptake assay (inhibition of 2-APB induced cellular uptake of radioactive calcium)
Assay type: cell-based
Settings: human TRPV3 expressing CHO cells, 2-APB 500 μM; for inhibition at 1 µM / Percentage inhibition at 1.0 μM: 1.0 μM test compound; for inhibition at 1 µM: read-out: Percentage inhibition at 1.0 μM; for inhibition at 10 µM / Percentage inhibition at 10.0 μM: 10.0 μM test compound; for inhibition at 10 µM: read-out: Percentage inhibition at 10.0 μM; for IC50: class symbols
Procedure, shortened: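 CHO cells stably expressing human TRPV3, preincubated 10 min with test compound, then 2-APB (500 μM final) plus 5 μCi/ml 45Ca2+ for 4 min in DMEM/F-12 with 1.8 mM CaCl2; 0.5% DMSO final. Lysate radioactivity by scintillation counting. IC50 by nonlinear regression of % maximal response; % inhibition at 1.0 and 10.0 μM.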

Structure (SMILES)	inhibition at 1 µM	inhibition at 10 µM	IC50	Percentage inhibition at 1.0 μM	Percentage inhibition at 10.0 μM
COc1cccc(/C=C/c2nc3sccn3c(=O)c2-c2ccc(C(F)(F)F)cc2)c1OCC(C)(C)C [Example 29, 7-[(E)-2-(3-Methoxy-2-neopentyloxy)phenyl-1-ethenyl]-6-(4-(trifluoromethyl)phenyl)-5H-[1,3]thiazolo[3,2-a]pyrimidin-5-one]	86.5%	93.7%	< 250 nM	–	–
COc1ccc(/C=C/c2nc3sccn3c(=O)c2-c2ccc(C(F)(F)F)cc2)cc1OCC1CC1 [Example 37, 7-[(E)-2-(3-Cyclopropylmethoxy-4-methoxyphenyl)-1-ethenyl]-6-[4-(trifluoromethyl)-phenyl]-5H-[1,3]thiazolo[3,2-a]pyrimidin-5-one]	39.6%	88.1%	–	–	–
COc1cccc(/C=C/c2nc3sccn3c(=O)c2-c2ccc(OC(F)(F)F)cc2)c1OCC1CCC1 [Example 67, 7-[(E)-2-{2-Cyclobutylmethoxy-3-methoxyphenyl}-1-ethenyl]-6-[4-(trifluoromethoxy)-phenyl]-5H-[1,3]thiazolo[3,2-a]pyrimidin-5-one]	80.2%	92.2%	< 250 nM	–	–
COc1cccc(/C=C/c2nc3sc(Cl)cn3c(=O)c2-c2ccc(C#N)cc2)c1OCC(C)(C)C [Example 80, 4-{2-Chloro-7-[(E)-2-(2-(2,2-dimethylpropoxy)-3-methoxyphenyl)vinyl]-5-oxo-5H-[1,3]thiazolo[3,2-a]pyrimidin-6-yl}benzonitrile]	69.1%	87.7%	500 to 1000 nM	–	–
COc1cccc(/C=C/c2nc3sc4ccccc4n3c(=O)c2-c2ccc(C#N)cc2)c1OCC1CC1 [Example 86]	–	–	–	45.5%	75.6%
CCCOc1c(/C=C/c2nc3sccn3c(=O)c2-c2ccc(C(F)(F)F)cc2)cccc1OC [Example 25, 7-[(E)-2-(3-Methoxy-2-propoxyphenyl)-1-ethenyl]-6-[4-(trifluoromethyl)phenyl]-5H-[1,3]thiazolo[3,2-a]pyrimidin-5-one]	70.7%	89.9%	500 to 1000 nM	–	–
O=c1c(-c2ccc(OC(F)(F)F)cc2)c(/C=C/c2cccc(O)c2O)nc2sccn12 [Example 59]	–	–	–	3.68%	0.00%
COc1ccc(-c2c(/C=C/c3cccc(OC)c3OCC3CC3)nc3sccn3c2=O)cc1 [Example 43, 7-[(E)-2-(2-Cyclopropylmethoxy-3-methoxyphenyl)-1-ethenyl]-6-(4-methoxy-phenyl)-5H-[1,3]thiazolo[3,2-a]pyrimidin-5-one]	63.4%	94%	500 to 1000 nM	–	–
O=c1c(-c2ccc(OC(F)(F)F)cc2)c(/C=C/c2cccc(OC(F)F)c2OCC2CC2)nc2sccn12 [Example 63, 7-{(E)-2-[2-(Cyclopropylmethoxy)-3-difluoromethoxyphenyl]-1-ethenyl}-6-(4-trifluoromethoxyphenyl)-5H-[1,3]thiazolo[3,2-a]pyrimidin-5-one]	81.4%	91.8%	< 250 nM	–	–
CCOCCOc1c(/C=C/c2nc3sccn3c(=O)c2-c2ccc(C#N)cc2)cccc1OC [Example 15, 4-{7-[(E)-2-(2-Ethoxyethoxy-3-methoxyphenyl]-1-ethenyl}-5-oxo-5H-[1,3]thiazolo[3,2-a]pyrimidin-6-yl}benzonitrile]	73.1%	94.8%	500 to 1000 nM	–	–
N#Cc1ccc(-c2c(/C=C/c3cccnc3)nc3sccn3c2=O)cc1 [Example 23, 4-{5-Oxo-7-[(E)-2-(3-pyridyl)-1-ethenyl]-5H-[1,3]thiazolo[3,2-a]pyrimidin-6-yl}-benzonitrile]	15.4%	1.2%	–	–	–
COc1cccc(/C=C/c2nc3sccn3c(=O)c2-c2cc(F)cc(F)c2)c1OCC1CC1 [Example 8]	–	–	–	2.0%	20.5%
CCCCCOc1c(/C=C/c2nc3sccn3c(=O)c2-c2ccc(C#N)cc2)cccc1OC [Example 10, 4-{7-[(E)-2-(3-Methoxy-2-pentyloxyphenyl)-1-ethenyl]-5-oxo-5H-[1,3]-thiazolo[3,2-a]pyrimidin-6-yl}benzonitrile]	74.8%	92.9%	250 to 500 nM	–	–
COc1cccc(/C=C/c2nc3scc(C)n3c(=O)c2-c2ccc(OC(F)(F)F)cc2)c1OCC1CC1 [Example 76, 7-[(E)-2-(2-Cyclopropylmethoxy-3-methoxyphenyl)-1-ethenyl]-3-methyl-6-[4-(trifluoromethoxy)phenyl]-5H-[1,3]thiazolo[3,2-a]pyrimidin-5-one]	61.9%	79.3%	–	–	–
CCCCOc1c(/C=C/c2nc3sc4ccccc4n3c(=O)c2-c2ccc(C#N)cc2)cccc1OC [Example 87]	–	–	–	34.44%	60.79%
COc1cccc(/C=C/c2nc3sccn3c(=O)c2-c2ccc(OC(F)(F)F)cc2)c1OCCCCF [Example 56, 4-7-[(E)-2-{2-(4-Fluorobutoxy)-3-methoxyphenyl}-1-ethenyl]-6-[4-(trifluoromethoxy)phenyl]-5H-[1,3]thiazolo[3,2-a]pyrimidin-5-one]	–	–	250 to 500 nM	80.9%	93.5%
CCOc1cccc(/C=C/c2nc3sccn3c(=O)c2-c2ccc(OC(F)(F)F)cc2)c1OCC1CC1 [Example 61, 7-{(E)-2-[2-(Cyclopropylmethoxy)-3-ethoxyphenyl}-1-ethenyl]-6-(4-trifluoromethoxy-phenyl)-5H-[1,3]thiazolo[3,2-a]pyrimidin-5-one]	22.7%	60.6%	–	–	–
CCOCCOc1c(/C=C/c2nc3sc4ccccc4n3c(=O)c2-c2ccc(C(F)(F)F)cc2)cccc1OC [Example 93, 2-{(E)-2-[(2-Ethoxyethoxy)-3-methoxyphenyl]-1-ethenyl}-3-(4-trifluoromethyl-phenyl)-4H-benzo[4,5][1,3]thiazolo-[3,2-a]pyrimidin-4-one]	–	–	–	6.53%	40.18%
COc1cccc(/C=C/c2nc3sccn3c(=O)c2-c2ccc(C#N)cc2)c1OCC(C)C [Example 12, 4-{7-[(E)-2-(2-Isobutoxy-3-methoxyphenyl)-1-ethenyl]-5-oxo-5H-[1,3]thiazolo[3,2-a]-pyrimidin-6-yl}benzonitrile]	74.7%	94.8%	< 250 nM	–	–
COc1cccc(/C=C/c2nc3scc(C(F)(F)F)n3c(=O)c2-c2ccc(C#N)cc2)c1OCC(C)(C)C [Example 82, 4-{7-[(E)-2-(3-Methoxy-2-neopentyloxyphenyl)-1-ethenyl]-5-oxo-3-(trifluoromethyl)-5H-[1,3]thiazolo[3,2-a]pyrimidin-6-yl}benzonitrile]	57.4%	70.3%	–	–	–
COc1cccc(/C=C/c2nc3sc4ccccc4n3c(=O)c2-c2ccc(C#N)cc2)c1OCCC(C)C [Example 88, 4-{2-[(E)-2-[2-(3-Methylbutoxy-3-methoxy]phenyl}-1-ethenyl]-4-oxo-4H-benzo[4,5]-[1,3]thiazolo-[3,2]pyrimidin-3-yl)benzonitrile]	–	–	–	32.87%	51.88%
COc1cccc(/C=C/c2nc3sccn3c(=O)c2-c2ccc(OC(F)(F)F)cc2)c1OCC(C)(C)C [Example 52, 7-[(E)-2-{3-Methoxy-2-neopentyloxyphenyl}-1-ethenyl]-6-[4-(trifluoromethoxy)phenyl]-5H-[1,3]thiazolo[3,2-a]pyrimidin-5-one]	78.4%	90.3%	< 250 nM	–	–
COc1cccc(/C=C/c2nc3sccn3c(=O)c2-c2ccc(C#N)cc2)c1OCC1CCC1 [Example 17, 4-{7-[(E)-2-(2-Cyclobutylmethoxy-3-methoxy)phenyl-1-ethenyl]-5-oxo-5H-[1,3]-thiazolo[3,2-a]pyrimidin-6-yl}benzonitrile]	73%	91.1%	< 250 nM	–	–
COc1cccc(/C=C/c2nc3n(C)c4ccccc4n3c(=O)c2-c2ccc(OC(F)(F)F)cc2)c1OCC1CC1 [Example 98, 2-[(E)-2-(2-Cyclopropylmethoxy-3-methoxyphenyl)vinyl]-3-(4-trifluoromethoxyphenyl)-10-methylpyrimido[1,2-a]benzimidazol-4(10H)-one]	23%	30%	–	–	–
